Results published in patent US9353090B2, “Heterocyclic carboxylic acids as activators of soluble guanylate cyclase” (Boehringer Ingelheim International GmbH, priority 2014, dated 2016).
≈ marks a conversion by molar mass, not a printed value.

Assays:
[1] = Human liver microsome (HLM) metabolic stability assay; assay type: in vitro ADME; details: human liver microsomes
How it was run: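 Compound at 1 uM incubated with human liver microsomes at 37° C. for 60 min after NADPH addition. Aliquots quenched in cold acetonitrile at 0, 5, 15, 30 and 60 min and analysed by LC/MS/MS. t1/2 from ln(% remaining) vs time slope; CLint, CLh and % Qh derived from it (n=1).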

[2] = molecular target: human soluble guanylate cyclase alpha 1 and beta 1 subunits (sGC) (Homo sapiens (Human), UniProt Q02108+Q02153); assay: sGC cellular activator assay (cGMP, HTRF), in the presence and absence of 50% human serum; assay type: cell-based; details: CHO cells stably expressing human sGC alpha 1/beta 1, preincubated with 40 microM ODQ; cGMP by HTRF; Table 2 does not state whether with or without 50% human serum
human soluble guanylate cyclase alpha 1 and beta 1 subunits (sGC), sequence (Q02108 whole entry partner): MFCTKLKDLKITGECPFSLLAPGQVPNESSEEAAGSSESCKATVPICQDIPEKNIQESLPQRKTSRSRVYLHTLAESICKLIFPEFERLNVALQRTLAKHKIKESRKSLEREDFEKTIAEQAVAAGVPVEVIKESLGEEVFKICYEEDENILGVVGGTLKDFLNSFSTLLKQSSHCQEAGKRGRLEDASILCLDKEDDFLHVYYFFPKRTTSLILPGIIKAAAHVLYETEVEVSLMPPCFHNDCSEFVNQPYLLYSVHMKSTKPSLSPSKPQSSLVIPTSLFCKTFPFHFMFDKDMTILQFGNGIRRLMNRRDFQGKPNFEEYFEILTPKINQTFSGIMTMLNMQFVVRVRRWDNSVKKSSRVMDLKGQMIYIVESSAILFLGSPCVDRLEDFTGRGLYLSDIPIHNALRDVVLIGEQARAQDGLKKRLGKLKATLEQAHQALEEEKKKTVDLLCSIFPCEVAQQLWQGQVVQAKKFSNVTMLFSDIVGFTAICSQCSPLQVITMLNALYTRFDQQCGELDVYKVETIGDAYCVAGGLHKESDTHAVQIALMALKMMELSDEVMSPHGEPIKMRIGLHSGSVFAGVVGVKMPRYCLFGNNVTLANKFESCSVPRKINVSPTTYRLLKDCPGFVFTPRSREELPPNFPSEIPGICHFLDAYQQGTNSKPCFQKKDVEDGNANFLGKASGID
human soluble guanylate cyclase alpha 1 and beta 1 subunits (sGC), sequence (Q02153 whole entry): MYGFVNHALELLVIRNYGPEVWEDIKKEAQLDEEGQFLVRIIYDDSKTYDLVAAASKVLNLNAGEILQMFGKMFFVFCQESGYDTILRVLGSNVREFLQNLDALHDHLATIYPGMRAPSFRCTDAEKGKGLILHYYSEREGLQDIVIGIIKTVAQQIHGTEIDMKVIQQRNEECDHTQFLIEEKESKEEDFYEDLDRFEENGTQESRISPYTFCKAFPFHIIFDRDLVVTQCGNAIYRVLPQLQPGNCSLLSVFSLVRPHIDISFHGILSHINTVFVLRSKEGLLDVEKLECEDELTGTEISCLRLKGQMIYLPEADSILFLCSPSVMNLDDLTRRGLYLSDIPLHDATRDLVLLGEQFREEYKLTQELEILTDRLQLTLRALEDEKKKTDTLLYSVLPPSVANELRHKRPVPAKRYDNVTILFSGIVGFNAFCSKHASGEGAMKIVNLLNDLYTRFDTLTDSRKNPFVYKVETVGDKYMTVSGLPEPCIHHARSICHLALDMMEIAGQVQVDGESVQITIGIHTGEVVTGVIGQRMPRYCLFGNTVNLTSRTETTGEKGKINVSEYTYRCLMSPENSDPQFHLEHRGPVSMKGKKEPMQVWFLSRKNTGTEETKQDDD
How it was run: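 Heme-oxidized conditions: ODQ (40 microM, 1 h) pretreatment of CHO cells stably expressing human α1/β1 sGC, in buffer containing 0.1% BSA and IBMX.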

physchem = details: kinetic from dmso stock
[3] = pH 2.2, aqueous buffer, Solubility (pH 2.2)
[4] = pH 4.5, aqueous buffer, Solubility (pH 4.5)
[5] = pH 6.8, aqueous buffer, Solubility (pH 6.8)

| Metabolic stability (Qh %), % hepatic blood flow [1] [%] | EC50 [2] [nM] | solubility at 24 h (physchem; [3]) [µg/mL] | solubility at 24 h (physchem; [4]) [µg/mL] | solubility at 24 h (physchem; [5]) [µg/mL] | SMILES |
| --- | --- | --- | --- | --- | --- |
| <24 | 6 | 130 (≈ 220 µM) | 27 (≈ 45.8 µM) | 2.2 (≈ 3.73 µM) | Cc1ccc(OCc2cc(C)c3c(c2)CCN(CC2COCCO2)C3)c(-c2csc(N3CC[C@@]4(C(=O)O)C[C@H]4C3)n2)c1 (some centres unmarked) [Compound 120] |
| 52 | 3 | 130 (≈ 232 µM) | 41 (≈ 73.2 µM) | 54 (≈ 96.5 µM) | Cc1cc(COc2c(C)cccc2-c2csc(N3CC[C@@]4(C(=O)O)C[C@H]4C3)n2)c(C)c2c1CN(C1COC1)CC2 [Compound 102] |
| 31 | 51 | 150 (≈ 257 µM) | 145 (≈ 249 µM) | 136 (≈ 233 µM) | COC[C@H]1N(c2cccc(-c3cccc(C)c3OCc3ccc4c(c3)CN(C3CCOCC3)CC4)n2)C[C@@H]2C[C@@]21C(=O)O [Compound 224] |
| 25 | 3 | 133 (≈ 215 µM) | 94.9 (≈ 154 µM) | 67.4 (≈ 109 µM) | COC[C@H]1N(c2cccc(-c3cccc(C)c3OCc3ccc4c(c3F)CCN(C3CCOCC3)CC4)n2)C[C@@H]2C[C@@]21C(=O)O [Compound 262] |
| <24 | 263 | 146 (≈ 245 µM) | 142 (≈ 238 µM) | 137 (≈ 229 µM) | COC[C@H]1N(c2cccc(-c3cc(C)ccc3OCc3cc(C)c4c(c3)CCN(C3CCOCC3)C4)n2)C[C@@H]2C[C@@]21C(=O)O [Compound 219] |
| <24 | 6 | 115 (≈ 184 µM) | 35.1 (≈ 56.3 µM) | 3 (≈ 4.81 µM) | CCO[C@@H]1CN(c2nc(-c3cc(C)ccc3OCc3cc(C)c4c(c3F)CCN(C3CCOCC3)C4)cs2)CC[C@@H]1C(=O)O [Compound 269] |
| <24 | 14 | 128 (≈ 220 µM) | 83.9 (≈ 145 µM) | 88.7 (≈ 153 µM) | COc1cc(COc2c(C)cccc2-c2csc(N3CC[C@@H](C(=O)O)[C@@H](OC)C3)n2)cc2c1CN(C1COC1)CC2 [Compound 209] |
| <24 | 6 | 110 (≈ 199 µM) | 90 (≈ 163 µM) | 60 (≈ 108 µM) | Cc1cc(COc2c(C)cccc2-c2cccc(N3C[C@@H]4C[C@]4(C(=O)O)C3)n2)cc2c1CN(C1CCOCC1)CC2 [Compound 22] |
| <24 | 26 | 140 (≈ 223 µM) | 120 (≈ 191 µM) | 88 (≈ 140 µM) | CCc1cc(COc2c(C)cccc2-c2cccc(N3C[C@@H]4C[C@]4(C(=O)O)[C@H]3COC)n2)cc2c1CN(CC1COCCO1)CC2 (some centres unmarked) [Compound 56] |
| 39 | 14 | 144 (≈ 240 µM) | 139 (≈ 231 µM) | 134 (≈ 223 µM) | COC[C@H]1N(c2cccc(-c3cccc(C)c3OCc3cc(F)c4c(c3)CCN(C3CCOCC3)C4)n2)C[C@@H]2C[C@@]21C(=O)O [Compound 216] |
| 89 | 3 | 151 (≈ 243 µM) | 82 (≈ 132 µM) | 57.1 (≈ 92.1 µM) | CCO[C@H]1CN(c2cccc(-c3cccc(Cl)c3OCc3cc(C)c4c(c3)CCN(C3CCOCC3)C4)n2)CC[C@H]1C(=O)O [Compound 256] |
| <24 | 12 | 120 (≈ 203 µM) | 86 (≈ 145 µM) | 77 (≈ 130 µM) | CO[C@H]1CN(c2nc(-c3cccc(C)c3OCc3ccc4c(c3C)CCN(C3CCOCC3)C4)cs2)CC[C@H]1C(=O)O [Compound 165] |
| <24 | 387 | > 140 | 0.5 (≈ 0.916 µM) | 8.9 (≈ 16.3 µM) | Cc1cccc(-c2csc(N3C[C@H]4C[C@@]4(C(=O)O)[C@@H]3C)n2)c1OCc1ccc2c(c1C)CCN(C1COC1)C2 [Compound 156] |
| <24 | 8 | 120 (≈ 195 µM) | 99 (≈ 161 µM) | 74 (≈ 120 µM) | COC[C@H]1N(c2cccc(-c3cccc(C)c3OCc3cc(C)c4c(c3F)CCN(C3CCOCC3)C4)n2)C[C@@H]2C[C@@]21C(=O)O [Compound 59] |
| 43 | 10 | 135 (≈ 239 µM) | 97.5 (≈ 173 µM) | 0.1 (≈ 0.177 µM) | Cc1c(COc2ccccc2-c2cccc(N3CC[C@@]4(C(=O)O)C[C@H]4C3)n2)ccc2c1CCN(Cc1cncn1C)C2 [Compound 308] |
| <24 | 10 | 140 (≈ 230 µM) | 100 (≈ 165 µM) | 99 (≈ 163 µM) | COc1cc(COc2c(C)cccc2-c2csc(N3CC[C@@H](C(=O)O)[C@@H](OC)C3)n2)cc2c1CN(C1CCOCC1)CC2 [Compound 171] |
| <24 | 120 | 100 (≈ 190 µM) | 84 (≈ 160 µM) | 48 (≈ 91.3 µM) | Cc1ccc(OCc2ccc3c(c2C)CCN(C2COC2)C3)c(-c2cccc(N3C[C@@H]4C[C@]4(C(=O)O)C3)n2)c1 [Compound 36] |

The remaining lines, values behind:

| SMILES | Metabolic stability (Qh %), % hepatic blood flow [1] [%] | EC50 [2] [nM] | solubility at 24 h (physchem; [3]) [µg/mL] | solubility at 24 h (physchem; [4]) [µg/mL] | solubility at 24 h (physchem; [5]) [µg/mL] |
| --- | --- | --- | --- | --- | --- |
| CO[C@H]1CN(c2nc(-c3cccc(C)c3OCc3cc(C)c4c(c3)CCN(C3CCOCC3)C4)cs2)CC[C@H]1C(=O)O [Compound 167] | <24 | 10 | 110 (≈ 186 µM) | 84 (≈ 142 µM) | 82 (≈ 139 µM) |
| CO[C@H]1CN(c2cccc(-c3cc(C)ccc3OCc3ccc4c(c3)CCN(C3CCOCC3)C4)n2)CC[C@H]1C(=O)O [Compound 70] | <24 | 120 | 130 (≈ 227 µM) | 120 (≈ 210 µM) | 83 (≈ 145 µM) |
| COC[C@H]1N(c2cccc(-c3cccc(C)c3OCc3ccc4c(c3F)CCN(C3COC3)CC4)n2)C[C@@H]2C[C@@]21C(=O)O [Compound 263] | <24 | 7 | 122 (≈ 207 µM) | 82.8 (≈ 141 µM) | 54.4 (≈ 92.6 µM) |
| COc1cc(COc2ccc(C)cc2-c2cccc(N3CC[C@H](C(=O)O)[C@H](OC)C3)n2)cc2c1CN(C1CCOCC1)CC2 [Compound 80] | <24 | 23 | 150 (≈ 249 µM) | 130 (≈ 216 µM) | 92 (≈ 153 µM) |
| CO[C@@H]1CN(c2nc(-c3cccc(C)c3OCc3ccc4c(c3C)CCN(C3COC3)C4)cs2)CC[C@@H]1C(=O)O [Compound 174] | <24 | 44 | 120 (≈ 213 µM) | 79 (≈ 140 µM) | 83 (≈ 147 µM) |
| CO[C@H]1CN(c2nc(-c3cccc(C)c3OCc3ccc4c(c3)C(C)(C)CN(C3CCOCC3)CC4)cs2)CC[C@H]1C(=O)O [Compound 323] | 45 | 2 | 131 (≈ 211 µM) | 84.3 (≈ 136 µM) | 65.2 (≈ 105 µM) |
| CCO[C@@H]1CN(c2nc(-c3cccc(C)c3OCc3cc(OC)c4c(c3F)CCN(C3CCOCC3)C4)cs2)CC[C@@H]1C(=O)O [Compound 270] | 38 | 2 | 114 (≈ 179 µM) | 73.4 (≈ 115 µM) | 64 (≈ 100 µM) |
| Cc1ccc(OCc2cc(C)c3c(c2C)CCN(C2CCOCC2)C3)c(-c2cccc(N3C[C@@H]4C[C@]4(C(=O)O)C3)n2)c1 [Compound 39] | <24 | 50 | 100 (≈ 176 µM) | 91 (≈ 160 µM) | 45 (≈ 79.3 µM) |
| CO[C@H]1CN(c2cccc(-c3cccc(C)c3OCc3ccc4c(c3C)CCN(C3CCOCC3)CC4)n2)CC[C@@H]1C(=O)O [Compound 296] | <24 | 363 | 132 (≈ 219 µM) | 77.2 (≈ 129 µM) | 68.8 (≈ 115 µM) |
| Cc1ccc(OCc2ccc3c(c2C)CCN(C2CCOCC2)C3=O)c(-c2cccc(N3CC[C@@]4(C(=O)O)C[C@H]4C3)n2)c1 [Compound 202] | 62 | 9 | 84 (≈ 144 µM) | 10 (≈ 17.2 µM) | 0.1 (≈ 0.172 µM) |
| CO[C@@H]1CN(c2cccc(-c3cccc(C)c3OCc3ccc4c(c3)C(C)(C)CN(C3CCOCC3)CC4)n2)CC[C@@H]1C(=O)O [Compound 324] | <24 | 2 | 134 (≈ 218 µM) | 103 (≈ 168 µM) | 77.5 (≈ 126 µM) |
| CO[C@@H]1CN(c2cccc(-c3cccc(C)c3OCc3ccc4c(c3C)CCN(C3CCOCC3)CC4)n2)CC[C@H]1C(=O)O [Compound 297] | <24 | 150 | 134 (≈ 224 µM) | 93.7 (≈ 156 µM) | 77.3 (≈ 129 µM) |
| Cc1c(COc2ccccc2-c2cccc(N3CC[C@@]4(C(=O)O)C[C@H]4C3)n2)ccc2c1CCN(C(C)c1ccccn1)C2 (some centres unmarked) [Compound 306] | 61 | 3 | 141 (≈ 246 µM) | 97.1 (≈ 169 µM) | 5.2 (≈ 9.05 µM) |
| Cc1cccc(-c2csc(N3CC[C@@]4(C(=O)O)C[C@H]4C3)n2)c1OCc1ccc2c(c1C)CCN(C1CCOC1)CC2 (some centres unmarked) [Compound 106] | 39 | 5 | 130 (≈ 227 µM) | 66 (≈ 115 µM) | 44 (≈ 76.7 µM) |
